“Also recorded” adds a separate entry of the source. Read-outs that look alike come from different tables or passages of the source.
How the values were obtained:
[1] = test system: polyoma virus transformed BHK21/c13 cells, clone S100T1; test: Clonal test: clonal growth of S100T1 cells in soft agar (Exp 2, 4, 6, 15, 16); format: cell-based, hamster; details: for Growth, results after 3 days / Concentration inhibiting (stopping) clonal growth: Exp 2; for Growth, results after 3 days: 400000 S100T1 cells, 1.5% agarose; for Concentration inhibiting (stopping) clonal growth: S100T1, 1.5% agarose, 3 days; for Clonal growth, result day 7: Exp 4, 3 μM, 120000 S100T1 cells, 1.1% agarose; for Significance / Growth: 4-OH—OPB No 11; for Clonal inhibition: S100T1
[2] = test system: Ehrlich ascites tumour; details: for Rescue of mice from transplanted Ehrlich tumour: suboptimal (moderate) dose alone, started the day after transplantation
Protocol: Tumour cells harvested from ascitic mouse were mainly solitary.
The experiment describes transplantation of the malignant mouse Ehrlich ascites tumour to two adult male mice (NMRI/Bom). Each of them received 100000 cells intraperitonally. One mouse was treated two times a week with 4-OH-OPB intraperitonally.
Cells were injected 90 minutes after the addition of 4-OH-OPB to the suspension. The control received the same cell suspension without 4-OH-OPB.
At the same time, dilutions of 4-OH-OPB were injected intraperitonally to the transplanted mice in order to find the smallest active dose.
The cells from ascites in the untreated control mouse was frozen on serum with 10% DMSO. The cells were thawed in water of 37° C., diluted in serum, and pelleted by low speed centrifugation after the addition of 2 ml FBS, to remove DMSO.
Each animal received such cells suspended in portions of 1 ml in RPMI (pH˜6.9).
The frozen and thawed Ehrlich ascites cells are diluted in a volume of 1 ml RPMI (pH˜6.9) for each animal. No calf serum was added to the medium to avoid immunisation of the mice.
Cell number: 90000 tumour cells in 0.7 ml RPMI were injected intraperitonally to each animal.
The total cell number in the ampoule was 7.5 million cells. The cells were thawed, and 2 ml FBS was added before low speed centrifugation. […] Than separate vessels were prepared for each animal. The cell tube for animal number 3 received Colchicine as indicated in the table on day 0 one hour before the cells were injected.
After mixing the same volume was transferred from this tube to the last tube.
The content of the last two tubes was injected intraperitonally to each of the mice number 1 and 2 respectively.

[3] = Exp 7, 1.62 μl 20 mM i.p. two times a week, 45.5 at day 0
[4] = Exp 8 mouse 1: 1.26 μl 20 mM i.p. from day 0 (42 μM i.p.)
[5] = Exp 8 mouse 2: 0.42 μl 20 mM i.p. from day 0 (14 μM i.p.)
[6] = Exp 8 mouse 3: 0.14 μl 20 mM i.p. from day 0 (4.7 μM i.p.)
[7] = Exp 8 mouse 4: 0.047 μl 20 mM i.p. from day 0 (1.6 μM i.p.)
[8] = Exp 8 mouse 6: 1.13 μl 20 mM i.p., first injection 24 h after tumour (37.7 μM i.p.)
[9] = Exp 8 mouse 7: 1.09 μl 20 mM i.p., first injection 3 days after tumour
[10] = Exp 8 mouse 7: 1.09 μl 20 mM i.p., first injection 3 days after tumour (36.3 μM i.p.)
[11] = Exp 8 mouse 7: 1.09 μl 20 mM i.p., first injection 3 days after tumour (36.3 μM i.p.), listed as 4-OH—OPB

With `CCCCC1(O)C(=O)N(c2ccccc2)N(c2ccc(O)cc2)C1=O` (stereo not drawn) [4-OH-OPB, 4-butyl-4-hydroxy-2(p-hydroxyphenyl)-1-phenyl-3,5-pyrazolidinedione] the “Growth, results after 3 days” value ([1]; 500 nM) was “inhibited”, the “Growth, results after 3 days” value ([1]; 1000 nM) was “inhibited” and the “Growth, results after 3 days” value ([1]; 1500 nM) was “inhibited”. The “Growth, results after 3 days” value ([1]; 2000 nM) was “inhibited”, the “Growth, results after 3 days” value ([1]; 3000 nM) was “inhibited” and the “Concentration inhibiting (stopping) clonal growth” value [1] was no less than 500 nM. The “Concentration inhibiting (stopping) clonal growth” value ([1]; listed as 4-OH—OPB) was “Even 500 nM stopped clonal growth”, the “Clonal growth, result day 7” value [1] was “no growth was observed” and the “Clonal growth, result day 7” value ([1]; listed as 4-OH—OPB) was “Single cells only; also recorded: Completely stopped clonal growth in”. The “Susceptibility after single cells had formed small clones (colonies)” value ([1]; Exp 6) was “no longer susceptible”, the “Concentration giving good clonal inhibition” value ([1]; Exp 6, S100T1, 120000 cells, treatment immediately after seeding) was “above 1 μM” and the “Growth inhibition at 30 μM when treatment delayed 24 hours” value ([1]; Exp 6, S100T1, small colonies already formed) was “small growth inhibition; also recorded: some inhibition of growth”. For the same molecule, the “Susceptibility after single cells had formed small clones (colonies)” value ([1]; Exp 6, listed as 4-OH—OPB) was “they were not susceptible any more”, the “Effect on clonal growth at 2 and 20 μM” value ([1]; Exp 15, 32000 S100T1 cells/well) was “inhibiting clonal growth” and the “Control compared with the other compounds” value ([1]; Exp 16) was “clearly better than any other”. For the same molecule, the Significance ([1]; Exp 16 day 14, 0.67 μM) was “yes”, the Growth ([1]; Exp 16 day 14, 0.67 μM in wells) was “−” and the Significance ([1]; Exp 16 day 14, 6.7 μM) was “yes”. The Growth ([1]; Exp 16 day 14, 6.7 μM in wells) was “−”, the Significance ([1]; Exp 16 day 21, 0.67 μM) was “yes” and the Growth ([1]; Exp 16 day 21, 0.67 μM in wells) was “−”. For the same molecule, the Significance ([1]; Exp 16 day 21, 6.7 μM) was “yes”, the Growth ([1]; Exp 16 day 21, 6.7 μM in wells) was “−” and the Clonal inhibition ([1]; 0.3 μM added after 24 hours, read after 48 hours) was 0. For the same molecule, the Clonal inhibition ([1]; 0.3 μM added immediately, read after 24 hours) was 0, the Clonal inhibition ([1]; 0.3 μM added immediately, read after 48 hours) was 0 and the Clonal inhibition ([1]; 1 μM added after 24 hours, read after 48 hours) was 0. For the same molecule, the Clonal inhibition ([1]; 1 μM added immediately, read after 24 hours) was “+”, the Clonal inhibition ([1]; 1 μM added immediately, read after 48 hours) was 0 and the Clonal inhibition ([1]; 3 μM added after 24 hours, read after 48 hours) was 0. The Clonal inhibition ([1]; 3 μM added immediately, read after 24 hours) was “++”, the Clonal inhibition ([1]; 3 μM added immediately, read after 48 hours) was “+−” and the Clonal inhibition ([1]; 10 μM added after 24 hours, read after 48 hours) was 0. For the same molecule, the Clonal inhibition ([1]; 10 μM added immediately, read after 24 hours) was “+++”, the Clonal inhibition ([1]; 10 μM added immediately, read after 48 hours) was “+” and the Clonal inhibition ([1]; 30 μM added after 24 hours, read after 48 hours) was “+”. For the same molecule, the Clonal inhibition ([1]; 30 μM added immediately, read after 48 hours) was “+++”, the “Anti-clonal effect, summary of Exp 16” value ([1]; S100T1 in soft agar) was 4-OH—OPB inhibited clones without escaping colonies and the “Inhibition of clonal growth at 300 nM” value ([1]; other/earlier experiments) was “no inhibition”. The “Weight of treated mouse, day 14” value [2, 3] was 42.6 g, the “Weight of treated mouse, day 18” value [2, 3] was 44.3 g and the “Tumour findings in treated mouse after 19 days” value ([2]; Exp 7, 1.62 μl 20 mM i.p. two times a week, 100000 Ehrlich cells i.p.) was “No tumour was detected; also recorded: completely normal without any palpable tumour or signs of ascites or anaemia; also recorded: no pathological signs; also recorded: no tumour or ascites observable”. The Ascites ([2]; Exp 7 treated animal, day 19) was 0 grams, the “Fibrinous material under diaphragm” value ([2]; Exp 7 treated animal, day 19) was 0 grams and the “Size of organs: Hart” value ([2]; Exp 7 treated animal, day 19) was 0.20 grams. The “Size of organs: Kidneys” value ([2]; Exp 7 treated animal, day 19) was 0.57 grams, the “Size of organs: Liver” value ([2]; Exp 7 treated animal, day 19) was 2.38 grams and the “Size of organs: Lungs” value ([2]; Exp 7 treated animal, day 19) was 0.3 grams. For the same molecule, the “Size of organs: Omentum” value ([2]; Exp 7 treated animal, day 19) was 2.36 grams, the “Size of organs: Spleen” value ([2]; Exp 7 treated animal, day 19) was 0.184 grams and the Tumour in groin ([2]; Exp 7 treated animal, day 19) was 0 grams. For the same molecule, the “Dose that did not cure when begun the next day or 3 days after transplantation, relative to minimum curative dose” value ([2]; Exp 8) was “about 9 times”, the “Smallest effective dose, in extracellular fluid” value ([2]; Exp 8) was 0.37 µM and the “Start of treatment needed for complete rescue” value ([2]; Exp 8) was “The treatment had to start immediately”. For the same molecule, the “Outcome when therapy started 24 hours after transplantation or later” value ([2]; Exp 8, doses in abdomen of 36-38 μM) was “development of ascites or ascites with solid tumour in addition”, the “Smallest effective (inhibiting) concentration in the peritoneum” value ([2]; Exp 8, injected together with the cells and then twice a week) was “dose was 4.8 μM” and the “Day 15 status” value [2, 4] was “healthy”. The “Day 15 weight” value [2, 4] was 33.9 gram, the “Day 15 weight/initial weight” value [2, 4] was 0.96 and the “Result (tumour growth)” value [2, 4] was “No tumour”. For the same molecule, the “Section day 17” value [2, 4] was “No pathology found, neither ascites nor solid tumours”, the “Section day 17” value ([2]; Exp 8 mouse 1: 1.26 μl 20 mM i.p. from day 0 (42 μM i.p.), listed as 4-OH—OPB) was “healthy, no tumour” and the “Day 15 status” value [2, 5] was “healthy”. The “Day 15 weight” value [2, 5] was 38.7 gram, the “Day 15 weight/initial weight” value [2, 5] was 0.97 and the “Section day 17” value [2, 5] was “No pathology found, neither ascites nor solid tumours”. The “Section day 17” value ([2]; Exp 8 mouse 2: 0.42 μl 20 mM i.p. from day 0 (14 μM i.p.), listed as 4-OH—OPB) was “healthy, no tumour”, the “Day 15 status” value [2, 6] was “healthy” and the “Day 15 weight” value [2, 6] was 29.3 gram. The “Day 15 weight/initial weight” value [2, 6] was 1.1, the “Section day 17” value [2, 6] was “No pathology was found, neither ascites nor solid tumours” and the “Section day 17” value ([2]; Exp 8 mouse 3: 0.14 μl 20 mM i.p. from day 0 (4.7 μM i.p.), listed as 4-OH—OPB) was “healthy, no tumour”. The “Ascites relative to control” value [2, 7] was “Ascites (0.66 of contr.) + solid”, the “Day 15 status” value [2, 7] was “Ascites” and the “Day 15 weight” value [2, 7] was 37.4 gram. The “Day 15 weight/initial weight” value [2, 7] was 1.33, the “Result (tumour growth)” value [2, 7] was “Lens-sized tumour at injection site in left abdominal wall” and the “Section day 17: ascites” value ([2]; Exp 8 mouse 4: 0.047 μl 20 mM i.p. from day 0 (1.6 μM i.p.), control 6.8 ml) was 4.5 mL. The “Section day 17: ascites” value ([2]; Exp 8 mouse 4: 0.047 μl 20 mM i.p. from day 0 (1.6 μM i.p.), control 6.8 ml, listed as 4-OH—OPB) was 4.5 ml ascites, the “Result (tumour growth)” value ([2]; Exp 8 mouse 4: 0.047 μl 20 mM i.p. from day 0 (1.6 μM i.p.), listed as 4-OH—OPB) was “Ascites (0.66 of contr.) + solid” and the “Ascites relative to control” value [2, 8] was “Ascites (0.47 of contr.) + solid”. The “Day 15 status” value [2, 8] was “Healthy”, the “Day 15 weight” value [2, 8] was 34.5 gram and the “Day 15 weight/initial weight” value [2, 8] was 1.09. The “Result (tumour growth)” value [2, 8] was “At injection site circular branched tumour”, the “Section day 17: ascites” value ([2]; Exp 8 mouse 6: 1.13 μl 20 mM i.p., first injection 24 h after tumour (37.7 μM i.p.), control 6.8 ml) was 3.15 mL and the “Section day 17: ascites” value ([2]; Exp 8 mouse 6: 1.13 μl 20 mM i.p., first injection 24 h after tumour (37.7 μM i.p.), control 6.8 ml, listed as 4-OH—OPB) was 3.2 ml ascites, inj. site. The “Result (tumour growth)” value ([2]; Exp 8 mouse 6: 1.13 μl 20 mM i.p., first injection 24 h after tumour (37.7 μM i.p.), listed as 4-OH—OPB) was “Ascites (0.47 of contr.) + solid”, the “Tumour size, Day 8” value [2, 9] was “Tumour = grain” and the “Tumour size, Day 10” value [2, 9] was “Tumour > grain”. The “Ascites relative to control” value [2, 10] was 0.00022 % of contr, the “Day 15 status” value [2, 10] was “lens-sized” and the “Day 15 weight” value [2, 10] was 30.5 gram. The “Day 15 weight/initial weight” value [2, 10] was 1.00, the “Section day 17: ascites” value [2, 10] was 0.015 mL and the “Section day 17: solid tumour” value [2, 10] was “pea-sized”. The “Result (tumour growth)” value [2, 11] was “Ascites; also recorded: contr.) + solid”, the “Section day 17: ascites” value [2, 11] was “site, 15 μl ascites,” and the “Section day 17: solid tumour” value [2, 11] was “Pea-size tumour at inj”. For the same molecule, the “tumour in abdominal wall, findings on section” value ([2]; Exp 18, at killing, control 2 × 3 mm tumour) was “Lens sized”, the “ascites with Ehrlich cells, findings on section” value ([2]; Exp 18, at killing, control 4 ml) was 0.1 mL and the “day 14 status” value ([2]; Exp 18, day 14 after ip transplantation, mouse 1 killed, mice 2 and 3 marked '?') was “Ascites”. For the same molecule, the “weight gain in %” value ([2]; Exp 18, one mouse each, ip: mouse 1 4-OH—OPB from day 1, mouse 2 Etoposide + 4-OH—OPB from day 1, mouse 3 Colchicine from day 0, control mouse 42.4) was 32.3%, the “Rescue of mice from transplanted Ehrlich tumour” value ([2]; Exp 18) was “missing cure” and the “Rescue of mice from transplanted Ehrlich tumour” value ([2]; Exp 18, listed as 4-OH—OPB) was “not rescued. Colchicine alone in high dose did”.
